Data reported in the kinase profiling compilation of Christmann-Franck et al. (2016).

What was measured:
Experiment in all cases: KINOMEscan competition binding
Details in all cases: compound 10.0 µM
MAPK1 (human) = MAPK1 (human) (UniProt P28482)
IKBKB (human) = IKBKB (human) (UniProt O14920)
PAK6 (human) = PAK6 (human) (UniProt Q9NQU5)
MAPK9 (human) = MAPK9 (human) (UniProt P45984)
MELK (human) = MELK (human) (UniProt Q14680)
PRKD2 (human) = PRKD2 (human) (UniProt Q9BZL6)
PIM3 (human) = PIM3 (human) (UniProt Q86V86)
TGFBR2 (human) = TGFBR2 (human) (UniProt P37173)
RIOK1 (human) = RIOK1 (human) (UniProt Q9BRS2)
MAP3K2 (human) = MAP3K2 (human) (UniProt Q9Y2U5)
MLTK (human) = MLTK (human) (UniProt Q9NYL2)
CSF1R (human) = CSF1R (human) (UniProt P07333)
CHUK (human) = CHUK (human) (UniProt O15111)
MAPKAPK5 (human) = MAPKAPK5 (human) (UniProt Q8IW41)
BLK (human) = BLK (human) (UniProt P51451)
EPHA8 (human) = EPHA8 (human) (UniProt P29322)
STK38L (human) = STK38L (human) (UniProt Q9Y2H1)
CSNK1G2 (human) = CSNK1G2 (human) (UniProt P78368)
MAP2K2 (human) = MAP2K2 (human) (UniProt P36507)
FER (human) = FER (human) (UniProt P16591)
CDK14 (human) = CDK14 (human) (UniProt O94921)
PKN1 (human) = PKN1 (human) (UniProt Q16512)
PTK6 (human) = PTK6 (human) (UniProt Q13882)
FGFR1 (human) = FGFR1 (human) (UniProt P11362)
CSNK1E (human) = CSNK1E (human) (UniProt P49674)
GAK (human) = GAK (human) (UniProt O14976)
CSNK1G3 (human) = CSNK1G3 (human) (UniProt Q9Y6M4)
CSNK1G3 (human), sequence (Q9Y6M4 whole entry, looked up): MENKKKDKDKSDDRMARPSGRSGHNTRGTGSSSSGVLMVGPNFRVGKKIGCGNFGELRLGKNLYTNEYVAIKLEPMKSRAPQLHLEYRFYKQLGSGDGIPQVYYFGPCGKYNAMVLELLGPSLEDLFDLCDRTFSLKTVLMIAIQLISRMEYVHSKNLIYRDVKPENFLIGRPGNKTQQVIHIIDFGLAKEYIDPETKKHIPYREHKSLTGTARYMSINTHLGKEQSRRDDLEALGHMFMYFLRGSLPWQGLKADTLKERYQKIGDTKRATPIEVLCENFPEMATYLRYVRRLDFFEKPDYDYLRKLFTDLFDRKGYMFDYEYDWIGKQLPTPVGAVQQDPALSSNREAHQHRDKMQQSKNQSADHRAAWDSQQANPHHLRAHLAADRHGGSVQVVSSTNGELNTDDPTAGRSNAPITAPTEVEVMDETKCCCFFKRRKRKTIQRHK

ERBB4 (human) = ERBB4 (human) (UniProt Q15303)
RIPK2 (human) = RIPK2 (human) (UniProt O43353)
STK11 (human) = STK11 (human) (UniProt Q15831)
[1] = molecular target: JAK3 JH1 catalytic (human) (UniProt P52333)
DCLK2 (human) = DCLK2 (human) (UniProt Q8N568)
DCLK2 (human), sequence (Q8N568 whole entry, looked up): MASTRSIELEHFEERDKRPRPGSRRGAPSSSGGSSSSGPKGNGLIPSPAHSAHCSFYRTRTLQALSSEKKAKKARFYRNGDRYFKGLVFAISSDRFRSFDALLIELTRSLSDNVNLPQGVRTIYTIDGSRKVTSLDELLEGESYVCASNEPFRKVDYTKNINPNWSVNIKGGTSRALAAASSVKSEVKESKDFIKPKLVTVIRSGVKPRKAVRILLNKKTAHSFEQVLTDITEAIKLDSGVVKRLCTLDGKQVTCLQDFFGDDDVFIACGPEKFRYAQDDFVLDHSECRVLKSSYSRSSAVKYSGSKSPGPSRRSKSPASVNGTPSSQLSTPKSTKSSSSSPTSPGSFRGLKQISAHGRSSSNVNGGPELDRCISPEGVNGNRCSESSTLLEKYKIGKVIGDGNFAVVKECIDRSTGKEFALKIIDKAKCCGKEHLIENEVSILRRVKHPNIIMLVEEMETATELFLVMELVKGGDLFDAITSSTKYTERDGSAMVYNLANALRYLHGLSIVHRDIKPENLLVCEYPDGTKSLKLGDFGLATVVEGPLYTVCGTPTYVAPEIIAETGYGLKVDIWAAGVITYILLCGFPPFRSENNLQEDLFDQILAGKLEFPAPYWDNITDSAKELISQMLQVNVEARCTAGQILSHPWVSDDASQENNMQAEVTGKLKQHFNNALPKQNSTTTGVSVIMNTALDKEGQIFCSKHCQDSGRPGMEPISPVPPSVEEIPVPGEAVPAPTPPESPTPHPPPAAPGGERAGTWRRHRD

MAP2K3 (human) = MAP2K3 (human) (UniProt P46734)
MAP2K3 (human), sequence (P46734 whole entry, looked up): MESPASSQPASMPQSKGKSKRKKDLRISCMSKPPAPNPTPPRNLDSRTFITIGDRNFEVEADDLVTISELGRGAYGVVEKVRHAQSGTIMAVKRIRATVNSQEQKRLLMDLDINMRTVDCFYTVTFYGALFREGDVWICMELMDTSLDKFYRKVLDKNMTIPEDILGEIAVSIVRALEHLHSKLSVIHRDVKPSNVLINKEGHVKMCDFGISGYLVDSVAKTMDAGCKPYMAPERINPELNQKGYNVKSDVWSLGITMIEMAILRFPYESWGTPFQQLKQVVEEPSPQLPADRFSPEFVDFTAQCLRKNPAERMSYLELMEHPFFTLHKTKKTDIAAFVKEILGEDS

NLK (human) = NLK (human) (UniProt Q9UBE8)
PIP4K2B (human) = PIP4K2B (human) (UniProt P78356)
HIPK2 (human) = HIPK2 (human) (UniProt Q9H2X6)
[2] = molecular target: JAK1 JH1 catalytic (human) (UniProt P23458)
JAK1 JH1 catalytic (human), sequence (P23458 whole entry, looked up): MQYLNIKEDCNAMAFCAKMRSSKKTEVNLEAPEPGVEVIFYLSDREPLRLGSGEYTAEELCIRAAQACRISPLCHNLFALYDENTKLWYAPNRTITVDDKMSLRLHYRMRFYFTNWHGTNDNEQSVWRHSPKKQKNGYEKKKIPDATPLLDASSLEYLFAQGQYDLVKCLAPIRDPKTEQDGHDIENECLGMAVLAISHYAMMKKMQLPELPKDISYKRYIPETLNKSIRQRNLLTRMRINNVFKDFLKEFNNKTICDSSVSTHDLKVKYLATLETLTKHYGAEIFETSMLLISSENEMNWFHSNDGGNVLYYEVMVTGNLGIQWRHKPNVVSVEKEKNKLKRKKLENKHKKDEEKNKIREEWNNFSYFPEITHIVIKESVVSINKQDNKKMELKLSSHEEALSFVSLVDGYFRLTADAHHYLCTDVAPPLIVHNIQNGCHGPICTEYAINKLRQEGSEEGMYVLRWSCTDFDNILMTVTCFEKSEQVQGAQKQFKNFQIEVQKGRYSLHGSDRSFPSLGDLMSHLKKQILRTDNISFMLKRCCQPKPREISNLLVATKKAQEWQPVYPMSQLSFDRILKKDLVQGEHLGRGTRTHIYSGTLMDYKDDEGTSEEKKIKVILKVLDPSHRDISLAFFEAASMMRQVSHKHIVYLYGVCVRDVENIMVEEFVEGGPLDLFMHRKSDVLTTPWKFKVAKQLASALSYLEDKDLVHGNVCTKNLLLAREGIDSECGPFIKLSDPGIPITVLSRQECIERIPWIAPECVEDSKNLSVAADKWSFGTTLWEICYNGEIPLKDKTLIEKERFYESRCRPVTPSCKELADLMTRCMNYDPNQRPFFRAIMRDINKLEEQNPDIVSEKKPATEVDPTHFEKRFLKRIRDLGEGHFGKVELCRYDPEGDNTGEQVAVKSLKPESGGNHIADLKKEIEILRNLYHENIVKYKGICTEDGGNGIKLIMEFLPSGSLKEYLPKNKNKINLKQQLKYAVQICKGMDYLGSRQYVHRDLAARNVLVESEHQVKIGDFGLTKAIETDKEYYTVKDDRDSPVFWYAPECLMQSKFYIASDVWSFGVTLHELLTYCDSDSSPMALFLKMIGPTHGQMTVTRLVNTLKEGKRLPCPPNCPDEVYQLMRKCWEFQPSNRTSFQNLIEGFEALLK

PI4KB (human) = PI4KB (human) (UniProt Q9UBF8)
MST1R (human) = MST1R (human) (UniProt Q04912)
NIM1 (human) = NIM1 (human) (UniProt Q8IY84)

PAK6 (human), sequence (Q9NQU5 whole entry, looked up): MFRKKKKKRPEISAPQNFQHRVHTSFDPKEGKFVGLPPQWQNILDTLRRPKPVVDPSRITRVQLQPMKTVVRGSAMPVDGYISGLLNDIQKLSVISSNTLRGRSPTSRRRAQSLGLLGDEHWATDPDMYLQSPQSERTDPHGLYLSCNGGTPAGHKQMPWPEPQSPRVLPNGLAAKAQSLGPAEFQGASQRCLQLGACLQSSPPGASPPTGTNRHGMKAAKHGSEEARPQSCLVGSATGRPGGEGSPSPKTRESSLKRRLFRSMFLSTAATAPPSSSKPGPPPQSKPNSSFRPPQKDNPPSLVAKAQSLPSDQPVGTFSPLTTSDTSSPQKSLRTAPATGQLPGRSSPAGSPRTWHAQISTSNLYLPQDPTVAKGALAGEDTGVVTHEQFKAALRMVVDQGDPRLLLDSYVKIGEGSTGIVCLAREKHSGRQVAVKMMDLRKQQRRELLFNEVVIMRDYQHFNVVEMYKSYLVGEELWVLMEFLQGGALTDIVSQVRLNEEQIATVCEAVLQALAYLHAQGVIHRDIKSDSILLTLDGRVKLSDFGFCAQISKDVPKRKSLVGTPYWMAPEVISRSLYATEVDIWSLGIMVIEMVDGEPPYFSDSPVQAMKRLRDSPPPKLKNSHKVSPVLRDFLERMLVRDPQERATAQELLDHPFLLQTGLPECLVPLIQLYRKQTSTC
MAPK9 (human), sequence (P45984 whole entry, looked up): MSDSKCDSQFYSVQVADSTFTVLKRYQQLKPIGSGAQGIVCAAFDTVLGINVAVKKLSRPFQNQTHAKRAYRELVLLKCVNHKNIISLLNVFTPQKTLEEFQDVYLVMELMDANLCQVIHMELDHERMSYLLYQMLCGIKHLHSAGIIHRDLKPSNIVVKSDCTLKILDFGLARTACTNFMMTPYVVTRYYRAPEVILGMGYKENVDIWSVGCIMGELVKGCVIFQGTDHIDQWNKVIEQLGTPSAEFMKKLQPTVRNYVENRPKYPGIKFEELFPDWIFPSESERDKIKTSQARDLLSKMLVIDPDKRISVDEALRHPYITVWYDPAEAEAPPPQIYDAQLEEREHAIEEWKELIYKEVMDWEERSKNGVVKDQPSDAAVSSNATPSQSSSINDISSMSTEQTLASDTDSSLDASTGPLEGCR
IKBKB (human), sequence (O14920 whole entry, looked up): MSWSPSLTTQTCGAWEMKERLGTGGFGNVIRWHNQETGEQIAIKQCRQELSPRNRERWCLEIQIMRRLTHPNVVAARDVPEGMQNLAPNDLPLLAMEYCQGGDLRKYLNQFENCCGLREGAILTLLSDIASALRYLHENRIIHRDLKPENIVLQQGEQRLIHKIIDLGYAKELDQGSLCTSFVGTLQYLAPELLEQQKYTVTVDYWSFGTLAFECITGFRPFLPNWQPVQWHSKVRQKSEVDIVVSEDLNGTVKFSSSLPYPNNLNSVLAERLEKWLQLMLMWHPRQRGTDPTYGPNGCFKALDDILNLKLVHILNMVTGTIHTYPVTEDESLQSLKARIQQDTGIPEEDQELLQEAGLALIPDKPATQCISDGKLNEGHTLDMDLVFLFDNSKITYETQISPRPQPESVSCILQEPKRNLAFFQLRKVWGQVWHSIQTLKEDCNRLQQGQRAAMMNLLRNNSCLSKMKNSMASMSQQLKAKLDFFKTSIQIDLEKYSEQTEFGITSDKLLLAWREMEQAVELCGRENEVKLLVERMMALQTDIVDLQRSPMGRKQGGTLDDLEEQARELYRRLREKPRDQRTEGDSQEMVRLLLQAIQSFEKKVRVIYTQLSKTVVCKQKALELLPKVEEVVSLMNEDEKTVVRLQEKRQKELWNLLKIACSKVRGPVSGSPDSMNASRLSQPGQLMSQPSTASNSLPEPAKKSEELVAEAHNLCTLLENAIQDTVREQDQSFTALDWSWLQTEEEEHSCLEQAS

## CCOc1cc(N2CCC(O)CC2)ccc1Nc1ncc2c(n1)N(C)c1ccccc1C(=O)N2C
MAPK1 (human)
  kinase still bound, per cent of control: 100%
IKBKB (human)
  kinase still bound, per cent of control: 100%
PAK6 (human)
  kinase still bound, per cent of control: 100%
MAPK9 (human)
  kinase still bound, per cent of control: 100%
MELK (human)
  kinase still bound, per cent of control: 100%
PRKD2 (human)
  kinase still bound, per cent of control: 100%
PIM3 (human)
  kinase still bound, per cent of control: 100%
TGFBR2 (human)
  kinase still bound, per cent of control: 100%
RIOK1 (human)
  kinase still bound, per cent of control: 100%
MAP3K2 (human)
  kinase still bound, per cent of control: 100%
MLTK (human)
  kinase still bound, per cent of control: 100%
CSF1R (human)
  kinase still bound, per cent of control: 100%
CHUK (human)
  kinase still bound, per cent of control: 100%
MAPKAPK5 (human)
  kinase still bound, per cent of control: 100%
BLK (human)
  kinase still bound, per cent of control: 100%
EPHA8 (human)
  kinase still bound, per cent of control: 100%
STK38L (human)
  kinase still bound, per cent of control: 100%
CSNK1G2 (human)
  kinase still bound, per cent of control: 100%
MAP2K2 (human)
  kinase still bound, per cent of control: 100%
FER (human)
  kinase still bound, per cent of control: 100%
CDK14 (human)
  kinase still bound, per cent of control: 100%
PKN1 (human)
  kinase still bound, per cent of control: 100%
PTK6 (human)
  kinase still bound, per cent of control: 100%
FGFR1 (human)
  kinase still bound, per cent of control: 100%
CSNK1E (human)
  kinase still bound, per cent of control: 100%
GAK (human)
  kinase still bound, per cent of control: 31%
CSNK1G3 (human)
  kinase still bound, per cent of control: 100%
ERBB4 (human)
  kinase still bound, per cent of control: 100%
RIPK2 (human)
  kinase still bound, per cent of control: 100%
STK11 (human)
  kinase still bound, per cent of control: 100%
[1]
  kinase still bound, per cent of control: 100%
DCLK2 (human)
  kinase still bound, per cent of control: 0.65%
MAP2K3 (human)
  kinase still bound, per cent of control: 100%
NLK (human)
  kinase still bound, per cent of control: 100%
PIP4K2B (human)
  kinase still bound, per cent of control: 100%
HIPK2 (human)
  kinase still bound, per cent of control: 100%
[2]
  kinase still bound, per cent of control: 100%
PI4KB (human)
  kinase still bound, per cent of control: 100%
MST1R (human)
  kinase still bound, per cent of control: 100%
NIM1 (human)
  kinase still bound, per cent of control: 100%

## COc1cc2c(Nc3ccc(NC(=O)c4ccccc4)cc3)ncnc2cc1OCCCN1CCOCC1
MAPK1 (human)
  kinase still bound, per cent of control: 72%
IKBKB (human)
  kinase still bound, per cent of control: 100%
PAK6 (human)
  kinase still bound, per cent of control: 95%
MAPK9 (human)
  kinase still bound, per cent of control: 27%
MELK (human)
  kinase still bound, per cent of control: 42%
PRKD2 (human)
  kinase still bound, per cent of control: 100%
PIM3 (human)
  kinase still bound, per cent of control: 100%
TGFBR2 (human)
  kinase still bound, per cent of control: 82%
RIOK1 (human)
  kinase still bound, per cent of control: 100%
MAP3K2 (human)
  kinase still bound, per cent of control: 28%
MLTK (human)
  kinase still bound, per cent of control: 34%
CSF1R (human)
  kinase still bound, per cent of control: 16%
CHUK (human)
  kinase still bound, per cent of control: 100%
MAPKAPK5 (human)
  kinase still bound, per cent of control: 100%
BLK (human)
  kinase still bound, per cent of control: 0.5%
EPHA8 (human)
  kinase still bound, per cent of control: 83%
STK38L (human)
  kinase still bound, per cent of control: 100%
CSNK1G2 (human)
  kinase still bound, per cent of control: 100%
MAP2K2 (human)
  kinase still bound, per cent of control: 0.1%
FER (human)
  kinase still bound, per cent of control: 65%
CDK14 (human)
  kinase still bound, per cent of control: 100%
PKN1 (human)
  kinase still bound, per cent of control: 100%
PTK6 (human)
  kinase still bound, per cent of control: 0.8%
FGFR1 (human)
  kinase still bound, per cent of control: 94%
CSNK1E (human)
  kinase still bound, per cent of control: 80%
GAK (human)
  kinase still bound, per cent of control: 60%
CSNK1G3 (human)
  kinase still bound, per cent of control: 100%
ERBB4 (human)
  kinase still bound, per cent of control: 0.65%
RIPK2 (human)
  kinase still bound, per cent of control: 2.8%
STK11 (human)
  kinase still bound, per cent of control: 100%
[1]
  kinase still bound, per cent of control: 62%
DCLK2 (human)
  kinase still bound, per cent of control: 100%
MAP2K3 (human)
  kinase still bound, per cent of control: 100%
NLK (human)
  kinase still bound, per cent of control: 100%
PIP4K2B (human)
  kinase still bound, per cent of control: 100%
HIPK2 (human)
  kinase still bound, per cent of control: 50%
[2]
  kinase still bound, per cent of control: 100%
PI4KB (human)
  kinase still bound, per cent of control: 100%
MST1R (human)
  kinase still bound, per cent of control: 3.9%
NIM1 (human)
  kinase still bound, per cent of control: 100%
